Results on 15 compounds are retold here after US5955053A, “Metal chelates as pharmaceutical imaging agents, processes of making such and uses thereof” (Emory University, priority 1996, dated 1999).

Read-outs that look alike come from different tables or passages of the source.

A short description of series [1]: Biodistribution in normal rats. Type of series: in vivo, rat. The conditions noted are these: ^99m Tc. The method, then: Tracheostomy was performed in an anesthetized rat and the left jugular vein was cannulated with one piece of PE-50 tubing for injection of the ^99m Tc radiopharmaceutical. The bladder was catheterized utilizing heat flared PE-50 tubing for urine collection. […] Each animal was sacrificed at the conclusion of the dynamic study and simultaneous static images of the isolated lungs, heart, liver, spleen, stomach, kidneys, bowel and bladder with urine were acquired as well as a static image of the rat carcass without the organs. Total counts for the injected dose were determined from the sum of the isolated organ counts and the carcass counts decay corrected to the time of organ imaging. Regions of interest were drawn around each organ to determined the percent injected dose in each organ.

Series [2] is described as follows: Renal clearance / renal excretion in rats (statements in words). The conditions noted are these: for Renal clearance of DD-EC compared to LL-EC: vs LL-isomer. The class given is in vivo, rat. The method, then:
Tracheostomy was performed in an anesthetized rat and the left jugular vein was cannulated with one piece of PE-50 tubing for injection of the ^99m Tc radiopharmaceutical. The bladder was catheterized utilizing heat flared PE-50 tubing for urine collection. A bolus injection of the radiopharmaceutical (400-500 μCi/0.25 ml) was given and the rat was imaged (1 frame/10 s) for 22 minutes (130 frames) using a gamma camera. Each animal was sacrificed at the conclusion of the dynamic study and simultaneous static images of the isolated lungs, heart, liver, spleen, stomach, kidneys, bowel and bladder with urine were acquired as well as a static image of the rat carcass without the organs. Total counts for the injected dose were determined from the sum of the isolated organ counts and the carcass counts decay corrected to the time of organ imaging. Regions of interest were drawn around each organ to determined the percent injected dose in each organ.

Series [3] in a line: Normal volunteer studies: plasma clearance, urinary excretion and imaging. The note with it: humans; for Clearance rate (EC/OIH): ± spread as printed. The class given is in vivo, human. Here is the method:
^99m Tc LL-EC, DD-EC and DL-EC were each evaluated in three normal male volunteers. The HPLC purified complexes and phosphate-buffered saline (pH 7.0) were passed through a SEP-PAK Plus C18 cartridge (primed with 1 ml ethanol) and a sterile Millex-GS 0.22 μm filter unit into a sterile, pyrogen-free empty vial. The final concentration was ~2.0 mCi/2.5 ml and the final pH ranged from 5.7 to 7.4. Test samples of each complex were sterile and pyrogen free. Approximately 2 mCi of each ^99m Tc complex were coinjected with 200 μCi of I-131 OIH and plasma samples were obtained at 5, 10, 15, 20, 30 45, 60 and 90 minutes postinjection. The plasma clearances of I-131 OIH and each EC complex were determined using the single injection, two-compartment model of Sapirstein et al., Am. J. Physiol. 181:330-336. The volunteers voided at 30, 90 and 180 minutes postinjection to determine the percent dose in the urine at each time period. A urine sample from the 30 minute urine collection was obtained for HPLC analysis from one of the normal volunteers and analyzed for each complex. One volunteer was imaged with each complex using a simultaneous acquisition with a 20% window centered over the 363 KeV photopeak of I-131 and a second 20% window over the 140 KeV photopeak of ^99m Tc. Data were acquired in a 128×128 matrix using a three phase dynamic acquisition: phase 1 consisted of 24 two second frames, phase 2 consisted of 16 fifteen second frames and phase 3 consisted of 40 thirty second frames. Data were acquired using a general Electric (Milwaukee, Wis.) Star-Cam computer fitted with a high energy collimator. All studies were performed with the approval of the Human Investigations Committee and a signed consent form was obtained.

For series [4] the following is noted: physiological pH; cited from earlier work.
Series [5] in a line: Stability of metal chelates. The class given is physicochemical.
For series [6] the following is noted: mice; cited from earlier work.
For series [7] the following is noted: mice and baboons; cited from earlier work.
The conditions of series [8]: in vivo; cited from earlier work.
For series [9] the following is noted: cited from earlier work.
For series [10] the following is noted: % of that of OIH; cited from earlier work.
For series [11] the following is noted: normal volunteers; increases in renal failure; cited from earlier work.
The conditions of series [12]: cited from earlier work. This is another data set of the same source.
The conditions of series [13]: in vivo; cited from earlier work. The source holds these as a separate data set.
For series [14] the following is noted: in vivo; cited from earlier work. This is another data set of the same source.
For series [15] the following is noted: in vivo; cited from earlier work. The source holds these as a separate data set.
The conditions of series [16]: cited from earlier work. The source holds these as a separate data set.

Turning to `O=C(O)[C@@H](CS)NCCN[C@H](CS)C(=O)O` (99mTc complex, metal not drawn) [D,D-EC, D,D-ethylenedicysteine], in series [1] (22 minutes post injection), the “Biodistribution: Bladder” value was 63.2% of total activity, the “Biodistribution: Carcass” value is 25.4% of total activity, the “Biodistribution: Intestines” value was 2.6% of total activity and the “Biodistribution: Kidneys” value is recorded as 5.4% of total activity. Besides, in series [1] (22 minutes post injection), the “Biodistribution: Liver” value is on record as 2.9% of total activity and the “Biodistribution: Stomach” value is recorded as < 1% of total activity. For the same compound, the “Renal clearance of DD-EC compared to LL-EC” value in series [2] is on record as “superior to L,L-EC in rats”. In addition, in series [2] (listed as DD-EC), the “Renal clearance of DD-EC compared to LL-EC” value is “significantly higher than that of its LL-isomer”. Further, in [2] (vs ^99m Tc MAG3), the “Renal clearance / excretion compared to MAG3” value was “more rapid renal clearance than ^99m Tc MAG3”. Besides, the “Renal clearance / excretion compared to MAG3” value in [2] (vs ^99m Tc MAG3, listed as DD-EC) is given as “significantly higher”. In [3], the Imaging properties entry is listed as “excellent imaging properties”, the “Rate of excretion in the urine” value is listed as “excreted at essentially the same rate in the urine” and the “Clearance rate (EC/OIH)” value turned out to be 82 ±8%. In addition, in series [4], the Dianionic form was 80% and the Monoanionic form was 20%.
Consider `CC(C)(S)C(=O)NCCCNC(=S)NCCC(=O)O` [(Me)2 -TAPTU-EtCOOH, dimethylthioacetamidepropylthiourea-ethylCOOH], for which the “Stability compared with corresponding thioacetamidethiourea derivative” value in [5] is recorded as “greater stability than the corresponding thioacetamidethiourea derivative”; in series [5] (listed as dimethyl-TAPTU-EtCOOH), “more stable than the corresponding thioacetamide-thiourea derivative”.
With `O=C([O-])[C@H](C[S-])NCCN[C@@H](CS)C(=O)[O-].[O]=[Tc+3]` [L,L-EC, L,L-ethylenedicysteine, reference compound], in [1] (22 minutes post injection), the “Biodistribution: Bladder” value is on record as 45.6% of total activity, the “Biodistribution: Carcass” value is 22.6% of total activity, the “Biodistribution: Intestines” value was 1.8% of total activity and the “Biodistribution: Kidneys” value is 24.4% of total activity. Moreover, in [1] (22 minutes post injection), the “Biodistribution: Liver” value is 4.5% of total activity and the “Biodistribution: Stomach” value is < 1% of total activity. In series [3], the “Rate of excretion in the urine” value is recorded as “excreted at essentially the same rate in the urine” and the “Clearance rate (EC/OIH)” value is 70 ±3%. For the same compound, in series [4], the Dianionic form was 80% and the Monoanionic form is 20%. Further, in series [6], the “Excretion into the urine” value is “rapidly and efficiently excreted into the urine in mice”. For the same compound, in [7], the “Comparison to enantiomer DD-EC” value is reported as “superior to the enantiomer ^99m Tc DD-EC”; the “Pharmacokinetic properties relative to OIH and MAG3” value is recorded as “more closely approached those of OIH than the properties of MAG3”. In addition, in [8], the “Excretion by the kidneys” value was “excreted rapidly and efficiently by the kidneys”.
As to `O=C([O-])CN=C([O-])CN=C([O-])CN=C([O-])C[S-].[O]=[99Tc+3]` [MAG3, technetium-99m (^99m Tc) mercaptoacetyltriglycine, reference compound], in series [1] (22 minutes post injection), the “Biodistribution: Bladder” value was 57% of total activity, the “Biodistribution: Carcass” value was 14% of total activity, the “Biodistribution: Intestines” value is given as 5% of total activity and the “Biodistribution: Kidneys” value is 23% of total activity. For the same compound, in series [1] (22 minutes post injection), the “Biodistribution: Liver” value is 1% of total activity and the “Biodistribution: Stomach” value was < 1% of total activity. Moreover, in [9], the Plasma-protein binding result is given as “very high”. Also, in series [10], the “Clearance relative to OIH” value was 50-60%. Further, the “Transport into the small intestine via the hepatobiliary system” value in series [11] is given as “a small percentage”. For the same compound, the “Clearance compared to DTPA” value in series [12] (in vivo) is “higher clearance”.
As for `C[C@H](NC(=O)CNC(=O)CS)C(=O)NCC(=O)O` [MAGAG, mercaptoacetylglycylalanylglycine], in series [13], the “Comparison of diastereomers to MAG3” value is “one diastereomer comparable and the other considerably inferior”.
With `O=C(O)CNC(=O)c1ccccc1[131I]` [OIH, ^131 I-orthohippurate], the “Clearance relative to PAH” value in series [12] (% of the clearance of PAH) is recorded as 83%.
For the compound D,L-ethylenedicysteine [DL-EC], in series [3], the “Rate of excretion in the urine” value is “slower rate of excretion” and the “Clearance rate (EC/OIH)” value came out at 40 ±5%.
As for “L-cysteinylethylenepyridine carboxamide [L-CEPIC]”, in series [1] (30 minutes post injection), the “Biodistribution: Bladder” value is 58.2% of total activity, the “Biodistribution: Carcass” value is listed as 19.8% of total activity, the “Biodistribution: Intestines” value is given as 6.4% of total activity and the “Biodistribution: Kidneys” value is recorded as 7.2% of total activity. In [1] (30 minutes post injection), the “Biodistribution: Liver” value was 4.8% of total activity and the “Biodistribution: Stomach” value is given as 1.9% of total activity. For the same compound, in [2], the “Removal by the kidneys” value was “rapid and selective removal”; the “Uptake in other major organs” value is listed as “only trace amounts”. The “Renal clearance / excretion compared to MAG3” value in series [2] (vs ^99m Tc MAG3) was “even more rapidly excreted by the kidneys than ^99m Tc MAG3”.
Turning to “^99m Tc L,L-ethylenedicysteine diethyl ester [LL-ECD]”, the Brain perfusion agent entry in [14] is given as “good brain perfusion agent”.
Consider “^99m Tc mercaptoacetylglycylglycyl-L-alanine [MAG2-Ala]”, for which the “Characteristics as imaging agents” value in series [15] was “promising characteristics as imaging agents”.
Consider “^99m Tc mercaptoacetylglycylglycyl-L-asparagine [MAG2-Asn]”, for which, in series [15], the “Characteristics as imaging agents” value is “promising characteristics as imaging agents”.
For the compound “^99m Tc mercaptoacetylglycylglycyl-L-glutamine [MAG2-Gln]”, the “Characteristics as imaging agents” value in [15] is reported as “promising characteristics as imaging agents”.
In the case of “^99m Tc mercaptoacetylglycylglycyl-taurine”, the “Comparison to MAG3 in dogs” value in series [16] is given as “inferior to ^99m Tc MAG3 in dogs”.
For “thioacetamidethiourea-ethylCOOH [TATU-EtCOOH]”, the “Renal clearance / excretion compared to MAG3” value in series [2] (vs ^99m Tc MAG3) is “superior renal clearance”.
For “thioacetamidethiourea-para-phenylCOOH [TATU-pPhCOOH]”, the “Rate of renal clearance” value in series [2] is reported as “cleared at a moderate rate”.
